Reference: BindingDB's records for doi:10.1016/j.bioorg.2017.01.006 (Jaipur National University, 2017)
pIC50: −log10 of the molar value.

What follows are compounds tested against Gag-Pol polyprotein (Human immunodeficiency virus type 1 group M subtype B (isolate HXB2), UniProt P04585) (assay: RT Assay). Settings: 37 °C.
Method: To a lysis buffer (20 μl), 4-6 ng recombinant HIV-1-RT was added in separate reaction tubes. Lysis buffer without HIV-1-RT was used as a negative control. Standards and test compound RT inhibitor (10 μg) were diluted with lysis buffer. This mixture was incubated for 1 h at 37 °C. For the number of micro plate modules to be used, enough foil bags were opened and micro plate modules were put into the frame in the correct orientation. The above samples were transferred to wells of microplate module. After addition it was covered with cover foil and incubated at 37 °C for 1 h. Solution was removed and rinsed five times with 250 μl of washing buffer per well for 30 s to each well. Then washing buffer was removed carefully. 200 μl of anti-DIG-POD working dilution was added to individual well and covered with cover foil and incubated at 37 °C for 1 h. Anti-DIG-POD working dilution solution was completely removed. Microplate module were washed five times for 30 s with washing buffer 250 μl and removed. 200 μl of ABTS substrate solution was added to individual well and incubated between 15 °C and 25 °C till (15−30 min) green color was obtained.

Compared with `CC1=C(C(=O)NC(=O)CN2C(=O)C(=O)c3ccccc32)C(c2ccc(Cl)cc2)NC(=O)N1` (stereo not given) [4-(4-Chlorophenyl)-N-(2-(2,3-dioxoindolin-1-yl)acetyl)-6-methyl-2-oxo-1,2,3,4-tetrahydro pyrimidine-5-carboxamide (9h)], `CC1=C(C(=O)NC(=O)CN2C(=O)C(=O)c3ccccc32)C(C)NC(=O)N1` (stereo not given) [N-(2-(2,3-Dioxoindolin-1-yl)acetyl)-4,6-dimethyl-2-oxo-1,2,3,4-tetrahydropyrimidine-5-carboxamide (9c)] is higher in pIC50: under 7.00 for the first, 7.19 for the second.

First: CCCC1NC(=O)NC(C)=C1C(=O)NC(=O)CN1C(=O)C(=O)c2ccccc21 (stereo not given) [N-(2-(2,3-Dioxoindolin-1-yl)acetyl)-6-methyl-2-oxo-4-propyl-1,2,3,4-tetrahydropyrimidine-5-carboxamide (9e)]
Second: CCC1NC(=O)NC(C)=C1C(=O)NC(=O)CN1C(=O)C(=O)c2ccccc21 (stereo not given) [N-(2-(2,3-Dioxoindolin-1-yl)acetyl)-4-ethyl-6-methyl-2-oxo-1,2,3,4-tetrahydropyrimidine-5-carboxamide (9d)]
The pIC50 of the first is lower: under 7.00 for the first, 7.17 for the second.

In the case of `Cc1cc(/C=C/C#N)cc(C)c1Nc1ccnc(Nc2ccc(C#N)cc2)n1` [Rilpivirine], the pIC50 was 7.17.
